# Target: full length MPS1 (Homo sapiens (Human), UniProt P33981)
# Assay: Measurement of inhibition of MPS1 kinase (Caliper EZ reader mobility-shift enzyme assay)
# Assay type: biochemical
# Conditions: full length MPS1 12.5 nM or 3 nM, H236 peptide 5 μM, ATP 10 μM, 60 min at room temperature
# Protocol: Measurement of Inhibition of MPS1 Kinase
# The reaction was carried out for 60 min at room temperature and stopped by the addition of buffer (10 μl) containing 20 mM EDTA, 0.05% (v/v) Brij-35, in 0.1M HEPES-buffered saline (Free acid, Sigma, UK). The plate was read on a Caliper EZ reader II (Caliper Life Sciences).
# The % inhibition of the compounds is calculated relative to the means of selected control wells.
# Sequence of full length MPS1 (P33981 whole entry): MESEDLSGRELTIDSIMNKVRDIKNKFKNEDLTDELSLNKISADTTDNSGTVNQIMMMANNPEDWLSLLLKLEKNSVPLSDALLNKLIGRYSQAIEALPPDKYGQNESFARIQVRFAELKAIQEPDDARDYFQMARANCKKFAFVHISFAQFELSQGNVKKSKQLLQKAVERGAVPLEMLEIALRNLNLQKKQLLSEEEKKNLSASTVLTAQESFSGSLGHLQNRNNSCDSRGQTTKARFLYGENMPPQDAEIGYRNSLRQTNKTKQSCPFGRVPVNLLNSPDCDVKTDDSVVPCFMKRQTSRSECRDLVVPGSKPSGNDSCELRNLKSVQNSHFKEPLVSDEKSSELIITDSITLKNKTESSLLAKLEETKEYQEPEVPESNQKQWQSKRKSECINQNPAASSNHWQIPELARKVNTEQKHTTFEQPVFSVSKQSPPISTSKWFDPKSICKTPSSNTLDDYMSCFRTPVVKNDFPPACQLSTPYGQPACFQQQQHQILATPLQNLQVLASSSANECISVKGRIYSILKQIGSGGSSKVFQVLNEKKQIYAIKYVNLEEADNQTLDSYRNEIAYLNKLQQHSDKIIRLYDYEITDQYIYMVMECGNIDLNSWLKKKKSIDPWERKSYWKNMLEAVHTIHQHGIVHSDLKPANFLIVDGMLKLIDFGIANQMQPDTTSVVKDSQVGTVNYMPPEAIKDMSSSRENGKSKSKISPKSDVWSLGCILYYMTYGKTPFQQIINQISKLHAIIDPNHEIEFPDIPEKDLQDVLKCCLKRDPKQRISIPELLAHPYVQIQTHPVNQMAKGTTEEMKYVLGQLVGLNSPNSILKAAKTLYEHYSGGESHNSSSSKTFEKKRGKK
row,SMILES,IC50 [nM]
1,CN(C)C(=O)c1ccc(Nc2cc3c(-c4cnn(C)c4)cccc3cn2)c(Cl)c1 [Example 26],78
2,"COc1cc(C2CCOCC2)ccc1Nc1ncc2ccnc(NCC3(C)CCOC3)c2n1 (stereo not drawn) [Example 154, N^2-(2-methoxy-4-(tetrahydro-2H-pyran-4-yl)phenyl)-N^8-((3-methyltetrahydrofuran-3-yl)methyl)pyrido[3,4-d]pyrimidine-2,8-diamine]",7
3,COc1cc(-c2cnn(C)c2CO)ccc1Nc1ncc2cc(C)nc(NCC(C)(C)OC)c2n1 [Example 198],9
4,COc1cc(C(=O)N2CC(OC)C2)ccc1Nc1cc2c(-c3cnn(C)c3)cccc2cn1 [Example 24],20
5,COc1cc(-c2cnc(C)n2C)ccc1Nc1ncc2cc(C)nc(NCC(C)(C)OC)c2n1 [Example 158],3
6,"COc1cc(-c2cnn(C)c2)ccc1Nc1ncc2ccnc(N3CC4(CCOCC4)C3)c2n1 [Example 119, N-(2-methoxy-4-(1-methyl-1H-pyrazol-4-yl)phenyl)-8-(7-oxa-2-azaspiro[3.5]nonan-2-yl)pyrido[3,4-d]pyrimidin-2-amine]",3
7,"COc1nc(-c2cn(C)nc2C)ccc1Nc1ncc2ccnc(NCC(C)(C)OC)c2n1 [Example 164, N^2-(6-(1,3-Dimethyl-1H-pyrazol-4-yl)-2-methoxypyridin-3-yl)-N^8-(2-methoxy-2-methylpropyl)pyrido[3,4-d]pyrimidine-2,8-diamine]",3
8,"COc1cc(-c2cnn(C)c2)ccc1Nc1cc2c(-c3cnn(C)c3)nccc2cn1 [Example 103, N-(2-methoxy-4-(1-methyl-1H-pyrazol-4-yl)phenyl)-5-(1-methyl-1H-pyrazol-4-yl)-2,6-naphthyridin-3-amine]",12
9,COc1cc(-c2cnn(C)c2)c(C)cc1Nc1ncc2ccnc(-c3cnn(C)c3)c2n1 [Example 36],100
10,CCOc1cc(-c2nncn2C)ccc1Nc1ncc2ccnc(NCC3(C)CCOC3)c2n1 (stereo not drawn) [Example 189],1
11,"COc1cc(-c2nncn2C)ccc1Nc1ncc2cc(C)nc(NCC(C)(C)C)c2n1 [Example 179, N2-(2-methoxy-4-(4-methyl-4H-1,2,4-triazol-3-yl)phenyl)-6-methyl-N8-neopentylpyrido[3,4-d]pyrimidine-2,8-diamine]",2
12,COC(C)(C)CNc1nc(C)cc2cnc(Nc3ccc(-c4cnn(C)c4)cc3OC(F)F)nc12 [Example 197],34
13,"COc1cc(-c2cnn(C)c2)ccc1Nc1ncc2ccnc(NC[C@]3(C)CCOC3)c2n1 [Example 141, (S)—N^2-(2-methoxy-4-(1-methyl-1H-pyrazol-4-yl)phenyl)-N^3-((3-methyltetrahydrofuran-3-yl)methyl)pyrido[3,4-d]pyrimidine-2,8-diamine]",3
14,"COc1cc(-c2cncn2C)ccc1Nc1cc2c(-c3cnn(C)c3)cccc2cn1 [Example 14, N-(2-methoxy-4-(1-methyl-1H-imidazol-5-yl)phenyl)-5-(1-methyl-1H-pyrazol-4-yl)isoquinolin-3-amine]",7
15,"COc1cc(N2CCN(S(C)(=O)=O)CC2)ccc1Nc1ncc2ccnc(NCC(C)(C)C)c2n1 [Example 176, N2-(2-methoxy-4-(4-(methylsulfonyl)piperazin-1-yl)phenyl)-N8-neopentylpyrido[3,4-d]pyrimidine-2,8-diamine]",3
16,"CN1CCC(NC(=O)c2ccc(Nc3cc4c(-c5cnn(C)c5)cccc4cn3)c(OC(F)(F)F)c2)CC1 [Example 6, 4-((5-(1-methyl-1H-pyrazol-4-yl)isoquinolin-3-yl)amino)-N-(1-methylpiperidin-4-yl)-3-(trifluoromethoxy)benzamide]",293
17,CS(=O)(=O)c1ccc(Nc2ncc3ccnc(N4CCC5(COC5)C4)c3n2)c(Cl)c1 [Example 199],25
18,"COc1nc(N2CCOCC2)ccc1Nc1ncc2ccnc(NCC(C)(C)C)c2n1 [Example 45, N^2-(2-methoxy-6-morpholinopyridin-3-yl)-N8-neopentylpyrido[3,4-d]pyrimidine-2,8-diamine]",13
19,"COc1cc(N2CCC(C(=O)N3CCOCC3)CC2)ccc1Nc1ncc2ccnc(NCC(C)(C)C)c2n1 [Example 172, (1-(3-methoxy-4-((8-(neopentylamino)pyrido[3,4-d]pyrimidin-2-yl)amino)phenyl)piperidin-4-yl)(morpholino)methanone]",12
20,"COc1cc(C(=O)N2CC(OC)C2)ccc1Nc1cc2c(-c3ccnn3C)cccc2cn1 [Example 9, (3-methoxy-4-((5-(1-methyl-1H-pyrazol-5-yl)isoquinolin-3-yl)amino)phenyl)(3-methoxyazetidin-1-yl)methanone]",22
21,"COc1cc(-c2cnn(CCN3CCN(C)CC3)c2)ccc1Nc1ncc2ccnc(NC3CCCCC3)c2n1 [Example 41, N^8-cyclohexyl-N2-(2-methoxy-4-(1-(2-(4-methylpiperazin-1-yl)ethyl)-1H-pyrazol-4-yl)phenyl)pyrido[3,4-d]pyrimidine-2,8-diamine]",3
22,COC(C)(C)CNc1nccc2cnc(Nc3ccc(Cl)cc3OC(F)F)nc12 [Example 202],70

# The remaining lines, values ahead:
row,IC50 [nM],SMILES
1,4,"COc1cc(-c2cnc(C)n2C)ccc1Nc1ncc2ccnc(-c3cnn(C)c3)c2n1 [Example 40, N-(4-(1,2-dimethyl-1H-imidazol-5-yl)-2-methoxyphenyl)-8-(1-methyl-1H-pyrazol-4-yl)pyrido[3,4-d]pyrimidin-2-amine]"
2,10,"COc1cc(-c2cnn(C)c2)ccc1Nc1ncc2ccnc(N3CCC(C)C3)c2n1 (stereo not drawn) [Example 56, N-(2-methoxy-4-(1-methyl-1H-pyrazol-4-yl)phenyl)-8-(3-methylpyrrolidin-1-yl)pyrido[3,4-d]pyrimidin-2-amine]"
3,11,"COc1cc(-c2cnn(C)c2)ccc1Nc1ncc2ccnc(NCCO)c2n1 [Example 126, 2-(2-(2-Methoxy-4-(1-methyl-1H-pyrazol-4-yl)phenylamino)pyrido[3,4-d]pyrimidin-8-ylamino)ethanol]"
4,16,"COc1cc(-c2cnn(C)c2)ccc1Nc1ncc2ccnc(N(C)C)c2n1 [Example 108, N^2-(2-methoxy-4-(1-methyl-1H-pyrazol-4-yl)phenyl)-N^8,N^8-dimethylpyrido[3,4-d]pyrimidine-2,8-diamine]"
5,5,"COc1cc(-c2cnn(C)c2)ccc1Nc1ncc2ccnc(NCC3CCOC3)c2n1 (stereo not drawn) [Example 79, N2-(2-methoxy-4-(1-methyl-1H-pyrazol-4-yl)phenyl)-N8-((tetrahydrofuran-3-yl)methyl)pyrido[3,4-d]pyrimidine-2,8-diamine]"
6,12,"COc1cc(-c2cnn(C)c2)ccc1Nc1ncc2ccnc(N3CCC(F)(F)C3)c2n1 [Example 57, 8-(3,3-difluoropyrroldin-1-yl)-N-(2-methoxy-4-(1-methyl-1H-pyrazol-4-yl)phenyl)pyrido[3,4-d]pyrimidin-2-amine]"
7,25,"COc1cc(-c2cnn(C)c2)ccc1Nc1ncc2ccnc(NC(C)(C)C)c2n1 [Example 82, N8-tert-butyl-N2-(2-methoxy-4-(1-methyl-1H-pyrazol-4-yl)phenyl)pyrido[3,4-d]pyrimidine-2,8-diamine]"
8,2,COc1cc(-c2cnn(C)c2CO)ccc1Nc1ncc2ccnc(NCC(C)(C)OC)c2n1 [Example 184]
9,6,"COc1cc(-c2cnn(C)c2)ccc1Nc1ncc2ccnc(N3CCN(S(C)(=O)=O)CC3)c2n1 [Example 139, N-(2-Methoxy-4-(1-methyl-1H-pyrazol-4-yl)phenyl)-8-(4-(methylsulfonyl)piperazin-1-yl)pyrido[3,4-d]pyrimidin-2-amine]"
10,10,"COc1cc(-c2cnn(C)c2)ccc1Nc1ncc2ccnc(N3CC(OC)C3)c2n1 [Example 67, N-(2-methoxy-4-(1-methyl-1H-pyrazol-4-yl)phenyl)-8-(3-methoxyazetidin-1-yl)pyrido[3,4-d]pyrimidin-2-amine]"
11,21,"COc1cc(-c2cnn(C)c2)ccc1Nc1ncc2ccnc(NCCC(C)C)c2n1 [Example 60, N8-isopentyl-N2-(2-methoxy-4-(1-methyl-1H-pyrazol-4-yl)phenyl)pyrido[3,4-d]pyrimidine-2,8-diamine]"
12,6,"COc1cc(-c2cnn(C)c2)ccc1Nc1ncc2ccnc(N3CCC(O)C3)c2n1 (stereo not drawn) [Example 80, 1-(2-(2-methoxy-4-(1-methyl-1H-pyrazol-4-yl)phenylamino)pyrido[3,4-d]pyrimidin-8-yl)pyrrolidin-3-ol]"
13,19,"COc1cc(-c2cnn(C)c2)ccc1Nc1ncc2ccnc(NC3(C)CCCCC3)c2n1 [Example 83, N2-(2-methoxy-4-(1-methyl-1H-pyrazol-4-yl)phenyl)-N8-(1-methylcyclohexyl)pyrido[3,4-d]pyrimidine-2,8-diamine]"
14,3,"COc1cc(-c2cnn(C)c2)ccc1Nc1ncc2ccnc(N3CCOCC3)c2n1 [Example 61, N-(2-methoxy-4-(1-methyl-1H-pyrazol-4-yl)phenyl)-8-morpholinopyrido[3,4-d]pyrimidin-2-amine]"
15,8,"COc1cc(-c2cnn(C)c2)ccc1Nc1ncc2ccnc(N3CCC4(CCC4)C3)c2n1 [Example 66, N-(2-methoxy-4-(1-methyl-1H-pyrazol-4-yl)phenyl)-8-(6-azaspiro[3.4]octan-6-yl)pyrido[3,4-d]pyrimidin-2-amine]"
16,7,"CCn1cc(-c2ccc(Nc3ncc4ccnc(NCC(C)(C)OC)c4n3)c(OC)c2)cn1 [Example 152, N^2-(4-(1-ethyl-1H-pyrazol-4-yl)-2-methoxyphenyl)-N^8-(2-methoxy-2-methylpropyl)pyrido[3,4-d]pyrimidine-2,8-diamine]"
17,3,"COc1cc(-c2cnn(C)c2C)ccc1Nc1ncc2ccnc(NCC3(C)CCOC3)c2n1 (stereo not drawn) [Example 148, N^2-(4-(1,5-dimethyl-1H-pyrazol-4-yl)-2-methoxyphenyl)-N^8-((3-methyltetrahydrofuran-3-yl)methyl)pyrido[3,4-d]pyrimidine-2,8-diamine]"
